What was measured:
[1] = system: dystrophic New Hampshire chickens, line 413; assay: Overall assessment of chemotherapy over all parameters measured; format: in vivo, chicken
Experimental: (§1) The compound IAPP was tested on dystrophic New Hampshire chickens, line 413, and Imperial College (London, England) sub-line of the original Davis, University of California strain. The chickens are homozygous for muscular dystrophy, the disease appearing with 100% incidence.
Chemotherapy was assessed by application of seven different parameters: physical tests of muscular disability, namely the flip test and wing apposition (W.A.) measurements; biochemical assays of serum and muscle enzume levels of creatine phosphokinase (CPK), pyruvate kinase (PK) and acetylcholinesterase (AChE); and histological comparisons of treated and untreated muscle. Toxicity studies (weight loss, etc.) were also used. A very comprehensive profile of the drug was thus obtained which related to all the known, highly characteristic features of the disease which are applicable to both the animal model and the human. […]

[2] = system: dystrophic New Hampshire chickens, line 413; assay: Wing apposition (WA) measurements; format: in vivo, chicken
Experimental: as §1
This can be defined as the minimum separation in cm to which the two wing tips can be passively raised, providing a measure of the characteristic loss is flexibility of the wing muscle-tendon system. The test is performed once weekly. In dystrophic birds, WA changes after the first three weeks of life from 0 cm (wings raised and touching) to about 18 cm at 3 months (wings stiff and can barely be raised). The normal controls maintain a score of 0 cm throughout. […]
(§2) Finally, oral therapy with IAPP was undertaken at gradually increasing dosages up to 1 g/Kg/day. The parameters (physical, biochemical and histological) measured previously were again used to test the efficacy of the drug; five different dosages were used orally, each being given for 30-60 days, daily (Tables VII-XI). A total of 75 animals were treated in the current study with IAPP and 70 control animals were used.

[3] = system: dystrophic New Hampshire chickens, line 413; assay: Toxicity (weight change, other symptoms) in dystrophic chickens; format: in vivo, chicken
[4] = system: dystrophic New Hampshire chickens, line 413; assay: Flip test (flip number FN, out of five attempts); format: in vivo, chicken
Experimental: as §1
The animal is placed on its back in the supine position. The number of times it is able to rise, out of five attempts, is known as the flip number (FN). The normal chicken invariably scores 5 (out of 5 attempts), whereas in an untreated dystrophic chicken, the number declines to zero in 6-8 weeks. The test is performed once every […], seven days; more frequent assessment introduces an exercise factor and is not recommended.
The drug was administered daily in water, injected intra-peritoneally, the amount being adjusted on a weekly basis according to the animal's weight.
as §2

[5] = system: Dystrophic monocytes; assay: Effect on human monocytes in culture (flat cells), dystrophic; format: cell-based; conditions: dystrophic monocytes + IAPP, six individuals, cultured 5-7 days; without IAPP 36.2%; preliminary
[6] = system: dystrophic chickens 413; assay: Experiment 4, flip test (25 flips), dystrophic chickens; format: in vivo, chicken
Experimental: (§3) All chickens were injected with 50 mg/Kg IAPP and weighed approximately every second or third day.
(§4) B, C, D: Experimental-injected with 50 mg/Kg IAPP

[7] = system: normal chickens 412; assay: Experiment 4, flip test (25 flips), normal chickens; format: in vivo, chicken
Experimental: as §3, §4

[8] = 200 mg/Kg i.p. daily for 28 days
[9] = oral 1 g/Kg daily, first four weeks

Structure (SMILES): CC(C)Nc1ncccn1.O=P(O)(O)O [IAPP, 2-isopropylaminopyrimidine orthophosphate]
- Physical performance [1, 8]: not significantly improved
- Reduction in plasma enzyme levels [1, 8]: large reduction in plasma enzume levels
- Persistence of enzyme reduction after injections ceased ([1]; 200 mg/Kg i.p., CPK, PK, AChE reduced from control values): 56 days
- Plasma enzyme activities ([1]; 300 mg/Kg i.p. daily): greatly reduced
- Persistence of reduced plasma enzyme levels after treatment ceased ([1]; 300 mg/Kg i.p. three times weekly): 56 days
- Reductions in plasma enzyme levels vs daily therapy ([1]; 300 mg/Kg three times weekly): very comparable reductions in plasma enzyme levels
- Difference between treated and dystrophic control animals, parameters measured ([1]; Exp. 1, 30 mg/Kg i.p. daily): no significant differents
- Flip number and wing apposition ([1]; Exp. 2, 40 mg/Kg): significant improvement
- Effect on all parameters measured ([1]; Exp. 2, 40 mg/Kg i.p. daily): significant effect of IAPP on all parameters measured
- CPK, PK and AChE enzyme levels ([1]; Exp. 2, 40 mg/Kg, effect declining at end of 10-week experiment): reduced dramatically
- minimal effective dose ([1]; Gallus gallus, ip, read-out: Minimum concentration found effective): 40 mg/kg
- Effect on physical performance parameters ([1]; oral 200 mg/Kg, 60 days): no effect
- Enzyme levels and physical performance ([1]; oral 600 mg/Kg): significant reductions in enzyme levels and improvements in physical performance
- Physical performance parameters [1, 9]: greatly improved
- Reduction in enzyme levels [1, 9]: highly significant reduction in enzyme levels
- Effective oral dosage ([1]; oral, daily for 35 days, chicken): 1 g/kg
- WA, treated ([2]; 200 mg/Kg i.p. daily for 30 days, day 28 ex ovo, control 0.4): 1.0 cm
- WA, treated ([2]; 200 mg/Kg i.p. daily for 30 days, day 45 ex ovo, control 0.6): 1.5 cm
- WA, treated ([2]; 200 mg/Kg i.p. daily for 30 days, day 84 ex ovo, control 8.3): 8.6 cm
- WA, treated ([2]; 300 mg/Kg i.p. daily for 30 days, day 28 ex ovo, control 0.4): 0.3 cm
- WA, treated ([2]; 300 mg/Kg i.p. daily for 30 days, day 45 ex ovo, control 0.6): 1.6 cm
- WA, treated ([2]; 300 mg/Kg i.p. daily for 30 days, day 84 ex ovo, control 9.3): 14.4 cm
- WA, treated ([2]; 300 mg/Kg i.p. three times weekly for 30 days, day 28 ex ovo, control 0.4): 0.3 cm
- WA, treated ([2]; 300 mg/Kg i.p. three times weekly for 30 days, day 45 ex ovo, control 0.6): 2.0 cm
- WA, treated ([2]; 300 mg/Kg i.p. three times weekly for 30 days, day 84 ex ovo, control 8.3): 11.1 cm
- WA, treated ([2]; Exp. 2, 40 mg/Kg i.p. daily, day 7-13, control 0): 0 cm
- WA, treated ([2]; Exp. 2, 40 mg/Kg i.p. daily, day 14-20, control 0): 0 cm
- WA, treated ([2]; Exp. 2, 40 mg/Kg i.p. daily, day 21-27, control 0): 0 cm
- WA, treated ([2]; Exp. 2, 40 mg/Kg i.p. daily, day 28-34, control 0): 0 cm
- WA, treated ([2]; Exp. 2, 40 mg/Kg i.p. daily, day 35-41, control 2.1): 0 cm
- WA, treated ([2]; Exp. 2, 40 mg/Kg i.p. daily, day 42-48, control 4.7): 2.3 cm
- WA, treated ([2]; Exp. 2, 40 mg/Kg i.p. daily, day 56-62, control 5.7): 2.9 cm
- WA, treated ([2]; Exp. 2, 40 mg/Kg i.p. daily, day 63-71, control 7.5): 6.1 cm
- WA, treated ([2]; Exp. 3, 70 mg/Kg i.p. daily, day 14-20, control 0): 0 cm
- WA, treated ([2]; Exp. 3, 70 mg/Kg i.p. daily, day 21-27, control 0): 0 cm
- WA, treated ([2]; Exp. 3, 70 mg/Kg i.p. daily, day 28-34, control 0): 0 cm
- WA, treated ([2]; Table VII, oral 200 mg/Kg, 60 days, day 28 ex ovo, control 0.8): 0.8 cm
- WA, treated ([2]; Table VII, oral 200 mg/Kg, 60 days, day 35 ex ovo, control 1.2): 2.5 cm
- WA, treated ([2]; Table VII, oral 200 mg/Kg, 60 days, day 45 ex ovo, control 3.4): 4.3 cm
- WA, treated ([2]; Table VII, oral 200 mg/Kg, 60 days, day 60 ex ovo, control 9.6): 10.7 cm
- WA, treated ([2]; oral 300 mg/Kg daily, day 28 ex ovo, control 1.6): 1.4 cm
- WA, treated ([2]; oral 300 mg/Kg daily, day 35 ex ovo, control 1.3): 4.5 cm
- WA, treated ([2]; oral 450 mg/Kg daily for 45 days, day 28 ex ovo, control 0.2): 0.7 cm
- WA, treated ([2]; oral 450 mg/Kg daily for 45 days, day 35 ex ovo, control 2.8): 1.9 cm
- WA, treated ([2]; oral 450 mg/Kg daily for 45 days, day 45 ex ovo, control 5.5): 5.8 cm
- WA, treated ([2]; oral 450 mg/Kg daily for 45 days, day 50 ex ovo, control 6.2): 7.6 cm
- WA, treated ([2]; oral 600 mg/Kg daily, day 28 ex ovo, control 0.2): 0.3 cm
- WA, treated ([2]; oral 600 mg/Kg daily, day 35 ex ovo, control 2.8): 1.1 cm
- WA, treated ([2]; oral 600 mg/Kg daily, day 45 ex ovo, control 5.5): 3.5 cm
- WA, treated ([2]; oral 600 mg/Kg daily, day 50 ex ovo, control 6.2): 5.5 cm
- Maximum Weight Loss ([3]; 300 mg/Kg i.p. three times weekly for 30 days): 17%
- Weight loss / toxic symptoms ([3]; initial single injection 50 mg/Kg, over 7 days): no weight loss over 7 days, nor any other toxic symptoms
- Maximum Weight Loss ([3]; oral 600 mg/Kg daily): 4%
- Maximum weight loss, reduction from control values ([3]; oral therapy, all doses): 7%
- FN (out of 5 attempts), treated ([4]; 200 mg/Kg i.p. daily for 30 days, day 28 ex ovo, control 4.9): 5.0
- FN (out of 5 attempts), treated ([4]; 200 mg/Kg i.p. daily for 30 days, day 45 ex ovo, control 3.5): 3.3
- FN (out of 5 attempts), treated ([4]; 200 mg/Kg i.p. daily for 30 days, day 84 ex ovo, control 0.7): 1.4
- Mean flip number ([4]; 200 mg/Kg i.p., further 56 days after injections ceased): slightly improved
- FN (out of 5 attempts), treated ([4]; 300 mg/Kg i.p. daily for 30 days, day 28 ex ovo, control 4.9): 4.5
- FN (out of 5 attempts), treated ([4]; 300 mg/Kg i.p. daily for 30 days, day 45 ex ovo, control 3.5): 2.3
- FN (out of 5 attempts), treated ([4]; 300 mg/Kg i.p. daily for 30 days, day 84 ex ovo, control 0.7): 0.1
- FN (out of 5 attempts), treated ([4]; 300 mg/Kg i.p. three times weekly for 30 days, day 28 ex ovo, control 4.9): 4.5
- FN (out of 5 attempts), treated ([4]; 300 mg/Kg i.p. three times weekly for 30 days, day 45 ex ovo, control 3.5): 2.7
- FN (out of 5 attempts), treated ([4]; 300 mg/Kg i.p. three times weekly for 30 days, day 84 ex ovo, control 0.7): 0.6
- FN Treated (out of 5 attempts) ([4]; Exp. 2, 40 mg/Kg i.p. daily, day 7-13, control 4.5): 4.9
- FN Treated (out of 5 attempts) ([4]; Exp. 2, 40 mg/Kg i.p. daily, day 14-20, control 4.8): 5.0
- FN Treated (out of 5 attempts) ([4]; Exp. 2, 40 mg/Kg i.p. daily, day 35-41, control 2.8): 5.0
- FN Treated (out of 5 attempts) ([4]; Exp. 2, 40 mg/Kg i.p. daily, day 49-55, control 2.0): 4.5
- FN Treated (out of 5 attempts) ([4]; Exp. 2, 40 mg/Kg i.p. daily, day 56-62, control 1.4): 3.8
- FN Treated (out of 5 attempts) ([4]; Exp. 2, 40 mg/Kg i.p. daily, day 63-71, control 0.9): 2.3
- FN Treated (out of 5 attempts) ([4]; Exp. 3, 70 mg/Kg i.p. daily, day 14-20, control 5): 5
- FN Treated (out of 5 attempts) ([4]; Exp. 3, 70 mg/Kg i.p. daily, day 21-27, control 4.8): 5
- FN Treated (out of 5 attempts) ([4]; Exp. 3, 70 mg/Kg i.p. daily, day 28-34, control 5): 5
- FN (out of 5 attempts), treated ([4]; Table VII, oral 200 mg/Kg, 60 days, day 28 ex ovo, control 5.0): 4.1
- FN (out of 5 attempts), treated ([4]; Table VII, oral 200 mg/Kg, 60 days, day 35 ex ovo, control 4.4): 3.6
- FN (out of 5 attempts), treated ([4]; Table VII, oral 200 mg/Kg, 60 days, day 45 ex ovo, control 3.2): 2.4
- FN (out of 5 attempts), treated ([4]; Table VII, oral 200 mg/Kg, 60 days, day 60 ex ovo, control 2.8): 1.8
- FN (out of 5 attempts), treated ([4]; oral 300 mg/Kg daily, day 28 ex ovo, control 4.8): 4.7
- FN (out of 5 attempts), treated ([4]; oral 300 mg/Kg daily, day 35 ex ovo, control 4.7): 4.4
- FN (out of 5 attempts), treated ([4]; oral 450 mg/Kg daily for 45 days, day 28 ex ovo, control 5.0): 5.0
- FN (out of 5 attempts), treated ([4]; oral 450 mg/Kg daily for 45 days, day 35 ex ovo, control 3.6): 4.8
- FN (out of 5 attempts), treated ([4]; oral 450 mg/Kg daily for 45 days, day 45 ex ovo, control 1.7): 2
- FN (out of 5 attempts), treated ([4]; oral 450 mg/Kg daily for 45 days, day 50 ex ovo, control 1.4): 1
- FN (out of 5 attempts), treated ([4]; oral 600 mg/Kg daily, day 28 ex ovo, control 5.0): 5.0
- FN (out of 5 attempts), treated ([4]; oral 600 mg/Kg daily, day 35 ex ovo, control 3.6): 4.3
- FN (out of 5 attempts), treated ([4]; oral 600 mg/Kg daily, day 45 ex ovo, control 1.7): 2.7
- FN (out of 5 attempts), treated ([4]; oral 600 mg/Kg daily, day 50 ex ovo, control 1.4): 2.3
- FN (out of 5 attempts), treated ([4]; oral 1 g/Kg daily, day 28 ex ovo, control 1.7): 3.5
- Birds able to rise from supine 5 times out of 5 attempts ([4]; oral 1 g/Kg daily, first four weeks, dystrophic controls 20%): Fifty
- % Flat Cells [5]: 45.1%
- Number of flips at which animal fatigued ([6]; 413D experimental animal, day 25, 50 mg/Kg): 19 flips
- Flip test outcome ([6]; dystrophic drug injected chickens, 50 mg/Kg): able to pass the flip test
- Fatigue in flip test ([7]; 412D, day 25, 50 mg/Kg): did not fatigue
- Flip test outcome ([7]; normal drug injected chickens, 50 mg/Kg): able to pass the flip test
